According to paper PMC10610379, “Epidrugs as Promising Tools to Eliminate Plasmodium falciparum Artemisinin-Resistant and Quiescent Parasites” (Pharmaceutics, 2023):
Values joined by “and” are separate entries in the source; they are usually repeats but may differ in a detail not shown here. Equal entries are not always repeated. Where two headings read alike, the source gives them in different places.

Assays:
[1] = system: Plasmodium falciparum F32-ART (artemisinin-resistant strain); experiment: Standard chemosensitivity assay (SYBR Green I), F32-ART; format: cell-based; details: for IC50: Plasmodium falciparum, read-out: Antiplasmodial Activity: IC50, F32-ART; for Selectivity Index CC50/IC50: ratio cytotoxicity (mammalian cell type of the CC50)/antiplasmodial activity on F32-ART
Protocol: (§1) They differ by eight mutations in seven genes (PF3D7_0110400, PF3D7_1343700, PF3D7_0213400, PF3D7_1115700, PF3D7_1302100, PF3D7_1459600, PF3D7_1464500) among them the M476I mutation on the kelch13 gene. F32-ART and F32-TEM strains have RSA^0–3 h values up to 12% and less than 0.1%, respectively. […] Both strains were cultured, in the same conditions, according to the Trager and Jensen protocol with modifications. Briefly, parasites were cultivated in RPMI-1640 medium (Biowest) at 2% hematocrit in human red blood cells and 5% human serum (EFS, French Blood Bank) under 5% CO2 in a humid atmosphere at 37 °C.
(§2) The antimalarial activities of the compounds were evaluated on both strains. […] Antimalarial activities were determined with the SYBR Green I method. Each drug concentration was tested in triplicate. The parasites were incubated with the drugs for 48 h. Plates were read on a BioTek FLX800 Microplate Fluorescence Reader (Bio-Tek instruments, Winooski, VT, USA) (λexcitation = 485 nm, λemission = 528 nm). Control parasite culture (i.e., RPMI with 0.5% DMSO) was referred to as 100% growth. IC50 and IC90 values were determined using GraphPad Prism version 7.05 (GraphPad Software, San Diego, CA, USA). Results were the mean of 3 independent experiments. When it is relevant, statistical significance between results obtained with both parasite strains was determined by a Mann–Whitney test using GraphPad Prism version 7.05.

human mesenchymal stem = system: human mesenchymal stem; design: method as in PMID 30237855; details: data from literature ref 53, read-out: Cytotoxicity: CC50 (human mesenchymal stem); cited from earlier work
[2] = system: Plasmodium falciparum F32-TEM (artemisinin-sensitive twin line); experiment: Standard chemosensitivity assay (SYBR Green I), F32-TEM; format: cell-based; details: Plasmodium falciparum, read-out: Antiplasmodial Activity: IC50, F32-TEM
Protocol: as §1, §2

HeLa = details: cited from earlier work
[3] = system: ART-resistant parasites F32-ART at the quiescent stage; experiment: Quiescent-stage Survival Assay (QSA), 48-h exposure; format: cell-based, Plasmodium falciparum; details: for Delay in parasite recrudescence time (difference between median recrudescence times), ART/ART + compound vs ART/ART: quiescence induced with ART 3 µM 6 h, then 48 h ART + compound at its IC90; for Delay in recrudescence time, DHA/DHA + compound vs DHA/DHA: quiescence induced with DHA 700 nM 6 h, then 48 h DHA + compound at its IC90
Protocol: The sensitivity of the ART-resistant parasites F32-ART at the quiescent stage towards the different molecules was determined using the QSA (Quiescent-stage Survival Assay), as previously described.
Epidrugs were tested at their IC90 values. In the present study, quiescence was induced using 3 µM of ART or 700 nM of DHA [28]. Thus, D-sorbitol synchronized ring-stage parasites at 3% parasitemia and 2% hematocrit (5 mL of culture per well in 6-well plates) were first exposed to 6 h of ART or DHA to induce quiescence and then to 48 h of the combination “ART or DHA + compound to be tested”. The combinations “ART 6 h/ART 48 h” or “DHA 6 h/DHA 48 h” were used as controls. The compounds were evaluated, in parallel, on proliferating parasites, i.e., without any pre-treatment. After drug exposure, parasite cultures were washed with 40 mL of RPMI-1640 medium and cultured in drug-free conditions supplemented with 10% human serum in new wells. The parasitemia for each condition was then microscopically monitored every 2 days. Culture media were renewed twice a week and 25 µL of fresh red blood cells were added once a week. Obtained data were used to perform Kaplan–Meier survival analyses considering censored data. The outcome was defined as the day when parasite cultures reached the initial parasitemia (3%) and data were considered as censored if no parasite recrudescence was observed during the 30-day experiment timeframe. When relevant, statistical significance between results obtained for the conditions “ART/ART” and “ART/ART + compound to be tested” or “DHA/DHA” and “DHA/DHA + compound to be tested” was determined by a Log Rank (Mantel Cox) test using GraphPad Prism version 7.05. For the best compounds targeting histones, in order to compare western blots data, modified QSAs were carried out by comparing “DHA 6 h/DHA 24 h” versus “DHA 6 h/DHA + compound to be tested 24 h”.

H4IIErat = details: read-out: Cytotoxicity: CC50 (H4IIErat), data from literature ref 54; cited from earlier work
GM15850 = system: GM15850; design: method as in PMID 18953021; details: data from literature ref 46, read-out: Cytotoxicity: CC50 (GM15850); cited from earlier work
NIH3T3 = system: NIH3T3; design: method as in PMID 28644986; details: data from literature ref 50, read-out: Cytotoxicity: CC50 (NIH3T3); cited from earlier work
monocytes = system: monocytes; design: method as in PMID 27091512; details: data from literature ref 47, read-out: Cytotoxicity: CC50 (monocytes); cited from earlier work
[4] = Cytotoxicity evaluation by MTT assay; format: cell-based; details: monkey, Vero cells, * mean of 2 experiments
Protocol: The cytotoxicity of all newly synthesized compounds was evaluated on the Vero cell lines (isolated from monkey kidney cells, gift from the Faculty of Pharmacy, Toulouse, France) by MTT assay according to Mosmann with slight modifications. Briefly, cells in MEM medium supplemented with 10% fetal calf serum, 2 mM L-glutamine, antibiotics (100 U/mL penicillin and 100 µg/mL streptomycin), and NEAA 1X, were seeded in 96-well plates. After a 24-h incubation at 37 °C and 5% CO2 in a humidified atmosphere, compounds were added with concentrations ranging from 5 nM to 50 μM in duplicate. […] The security index was calculated as the ratio of cytotoxicity/antiplasmodial activity.

[5] = system: P. falciparum strains F32-ART and F32-TEM; experiment: Standard chemosensitivity assay, both strains; format: cell-based; details: Plasmodium falciparum, F32, read-out: Antiplasmodial activity IC50
Protocol: as §2

[6] = system: ART-resistant parasites F32-ART at the quiescent stage; experiment: Modified QSA, 24-h exposure; format: cell-based, Plasmodium falciparum; details: DHA 700 nM, compound at its IC90, 24-h exposure
Protocol: Epidrugs were tested at their IC90 values. In the present study, quiescence was induced using 3 µM of ART or 700 nM of DHA [28]. Thus, D-sorbitol synchronized ring-stage parasites at 3% parasitemia and 2% hematocrit (5 mL of culture per well in 6-well plates) were first exposed to 6 h of ART or DHA to induce quiescence and then to 48 h of the combination “ART or DHA + compound to be tested”. The combinations “ART 6 h/ART 48 h” or “DHA 6 h/DHA 48 h” were used as controls. The compounds were evaluated, in parallel, on proliferating parasites, i.e., without any pre-treatment. […] The parasitemia for each condition was then microscopically monitored every 2 days. […] When relevant, statistical significance between results obtained for the conditions “ART/ART” and “ART/ART + compound to be tested” or “DHA/DHA” and “DHA/DHA + compound to be tested” was determined by a Log Rank (Mantel Cox) test using GraphPad Prism version 7.05. […]
To collect enough material for immunoblotting, we performed the analysis after a 24-h exposure of DHA-treated parasites to the epidrug and in parallel evaluated the activity of the three epidrugs in a modified QSA, in which quiescent parasites were exposed to the drug to be tested for 24 instead of 48 h, as in our previous experiments (Figure 2).

Jurkat = details: read-out: Cytotoxicity: CC50 (Jurkat), data from literature ref 41; cited from earlier work
H4ac4 = experiment: Immunoblotting, histone mark abundance in F32-ART parasites; format: cell-based, Plasmodium falciparum; details: 90nM
Protocol: (§3) Abundance of methylated and acetylated histone was determined in parasite cultures in different conditions: “not-treated”, “DHA 24 h”, “DHA 6 h/DHA 24 h” and “DHA 6 h/DHA + compound to be tested 24 h”. At the end of the treatments, parasite cultures were washed in RPMI-1640 and then twice in PBS 1× before red blood cell lysis with 0.075% saponin (Sigma-Aldrich) in PBS. Parasite ghosts were washed 3 times in PBS before incubating the ghosts with E1A lysis buffer (50 mM Hepes pH 7.5; 250 mM NaCl; 5 mM EDTA; 0.1% Triton X-100, 1 mM DTT, 0.2 mM PMSF supplemented with complete Mini EDTA-free protease inhibitor cocktail (Roche®, Basel, Switzerland)) for 15 min. Ghosts were then sonicated for 3 × 15s ON/OFF cycles to shear parasite membranes. Debris were pelleted by centrifuging for 15 min at 13,800× g and 4 °C, and supernatants (containing parasitic proteins) were then collected. Protein concentrations were determined using BCA assay (Bio-Rad, Hercules, CA, USA) according to the manufacturer’s instructions. For each sample, 10 µg of proteins were mixed with 4× sample buffer (10 mL 50% Glycerol, 5 mL 0.5 M Tris HCl pH 6.8, 4 mL 20% SDS, 0.02% Bromophenol blue for a total solution volume of 20 mL) and 100 mM DTT and then separated on 15% SDS-PAGE gels in Laemmli running buffer. Gels were then wet-transferred O/N at 20 V onto PVDF membranes. Membranes were blocked in TBST for 1 h at room temperature. Bottom parts were then probed with histone antibodies while upper parts were probed with PFALDOLASE antibody (Abcam, ab38905, Cambridge, UK) at 1:20,000 dilution. The following primary antibodies were used: anti-H3K4me1 (Abcam, ab8895); anti-H3K4me2 (Abcam, ab35356); anti-H3K9me2 (Abcam, ab1220); anti-H3K9me3 (Millipore, 07-442, Burlington, MA, USA); anti-tetra-acetyl H4 (Millipore, 06-866); anti-H4K8Ac (Millipore, 07-328); anti-H4K20me3 (Abcam, ab9053); anti-H3K4me3 (Diagenode) and anti-H3K9Ac (Millipore, 07-352) at 1:10,000. The following secondary antibodies were used: anti-rabbit IgG-Peroxidase produced in goat (Sigma-Aldrich) or anti-mouse IgG-Peroxidase (Sigma-Aldrich); at 1:20,000 dilutions. Blots were developed using ECL Prime Western Blotting (GE Healthcare, Chicago, IL, USA) and read on a Chemidoc touch imaging software. Densitometry analysis was performed by using ImageLab software from Bio-Rad. To determine if variations in histone abundances were statistically significant, immunoblotting experiments were performed on 3 biological replicates and each run was performed twice.

H4K8ac = experiment: as above; format: cell-based, Plasmodium falciparum; details: 90nM
Protocol: as §3

NOMO1 = details: read-out: Cytotoxicity: CC50 (NOMO1), data from literature ref 51; cited from earlier work
HL-60 = details: read-out: Cytotoxicity: CC50 (HL-60), data from literature ref 49; cited from earlier work
[7] = F32-ART, 48 h incubation, SYBR Green I, mean ± SEM of 3 experiments (* mean of 2)
[8] = F32-TEM, 48 h incubation, SYBR Green I, mean ± SEM of 3 experiments (* mean of 2)
[9] = 24 h, F32-ART ring stage proliferating, 3 replicates (Fig 3A)
[10] = DHA 6 h/DHA + apicidin 24 h, F32-ART DHA-treated parasites, 3 replicates (Fig 3E)

SMILES	IC50 [1, 7] [µM]	Selectivity Index CC50/IC50 [1]	IC50 [2, 8] [µM]	other results
Clc1ccc(N/N=C(\c2ccccc2)c2ccccn2)nc1 [JIB-04]	0.56 ± 0.08	>18	0.94 ± 0.03	CC50 (human mesenchymal stem): > 10 µM
NNc1nncc2ccccc12 [Hydralazine]	> 10	<4	> 10	CC50 (HeLa): 40 µM
Cc1cc(Nc2ccc(NC(=O)c3ccc(Nc4ccnc5ccccc45)cc3)cc2)nc(N)n1 [SGI-1027]	0.063 ± 0.013	>790	0.054 ± 0.022	Delay in parasite recrudescence time (difference between median recrudescence times), ART/ART + compound vs ART/ART [3]: 8 days; Delay in recrudescence time, DHA/DHA + compound vs DHA/DHA [3]: ≥ 6 days; CC50 (H4IIErat): > 50 µM
Cc1ccc(NC(=O)CCCCCC(=O)Cc2ccccc2N)cc1 [TC-H 106]	> 10	<0.6	> 10	CC50 (GM15850): 6.3 µM
C#CCN(Cc1ccc2nc(N)[nH]c(=O)c2c1)c1ccc(C(=O)N[C@@H](CCC(=O)O)C(=O)O)cc1 [CB3717]	1	>20	1	CC50 (NIH3T3): > 20 µM
Cn1cc(/C=C/C(=O)c2cccc(F)c2)cc1/C=C/C(=O)NO [MC 1568]	> 10	<1	> 10	CC50 (monocytes): 10 µM
Cc1ncsc1-c1ccc(CNC(=O)[C@@H]2C[C@@H](O)CN2C(=O)[C@@H](NC(=O)COCCOCCOCCNC(=O)C[C@@H]2N=C(c3ccc(Cl)cc3)c3c(sc(C)c3C)-n3c(C)nnc32)C(C)(C)C)cc1 [MZ1]	1.7	>30	1.3	CC50 [4]: > 50 µM; IC50 [5]: 1.3 to 1.7 µM
CCC(=O)CCCCC[C@@H]1NC(=O)[C@H]2CCCCN2C(=O)[C@H]([C@@H](C)CC)NC(=O)[C@H](Cc2cn(OC)c3ccccc23)NC1=O [Apicidin]	0.036 ± 0.009	280	0.036 ± 0.005	Recrudescence in modified QSA, DHA 6 h/DHA + compound 24 h vs DHA 6 h/DHA 24 h [6]: no difference in recrudence time; Delay in parasite recrudescence time (difference between median recrudescence times), ART/ART + compound vs ART/ART [3]: 8 days; Delay in recrudescence time, DHA/DHA + compound vs DHA/DHA [3]: slightly shorter delay; CC50 (Jurkat): 10 µM; Fold change of H4ac4 abundance, apicidin vs DMSO (H4ac4; [9]): increase and 1.70 and 1.40 and 1.39; Fold change of H4ac4 abundance, apicidin, quiescent stage (H4ac4; [10]): increase and 2.21 and 2.92 and 2.08; Fold change of H4K8ac abundance, apicidin vs DMSO (H4K8ac; [9]): 0.98 and 1.16 and 0.96; Fold change of H4K8ac abundance, apicidin, quiescent stage (H4K8ac; [10]): increase and 1.81 and 2.83 and 2.40
CCCCCCCc1ccc(CCc2cccc(O)c2C(=O)O)cc1 [MG149]	–	–	–	IC50 ([1]; F32, 48 h): > 10 µM; CC50 (NOMO1): 51 µM; IC50 ([2]; F32, 48 h): > 10 µM
CN1C(=O)[C@@]23C[C@]4([C@]56C[C@@]78SS[C@@](CO)(C(=O)N7[C@H]5Nc5ccccc56)N(C)C8=O)c5ccccc5N[C@@H]4N2C(=O)[C@]1(CO)SS3 [Chaetocin]	0.64 ± 0.16	0.2	0.73 ± 0.09	CC50 (HL-60): 0.13 µM
